Laboratory results reported in PMC6471201, “Discovery of Indoleamine 2,3-Dioxygenase 1 (IDO-1) Inhibitors Based on Ortho-Naphthaquinone-Containing Natural Product” (Molecules, 2019).

Experiments:
hIDO-1 [1] = target: T1, hIDO-1 (Homo sapiens, UniProt P14902); assay: hIDO-1 enzymatic assay; assay type: biochemical; settings: mean ± SE of two independent experiments; for IC50: rhIDO-1, L-tryptophan substrate, 37 °C 30 min; for inhibition at 20 µM: 20 µM compound, read-out: Inhibitory Rate at 20 µM (enzymatic)
T1 sequence (P14902 whole entry): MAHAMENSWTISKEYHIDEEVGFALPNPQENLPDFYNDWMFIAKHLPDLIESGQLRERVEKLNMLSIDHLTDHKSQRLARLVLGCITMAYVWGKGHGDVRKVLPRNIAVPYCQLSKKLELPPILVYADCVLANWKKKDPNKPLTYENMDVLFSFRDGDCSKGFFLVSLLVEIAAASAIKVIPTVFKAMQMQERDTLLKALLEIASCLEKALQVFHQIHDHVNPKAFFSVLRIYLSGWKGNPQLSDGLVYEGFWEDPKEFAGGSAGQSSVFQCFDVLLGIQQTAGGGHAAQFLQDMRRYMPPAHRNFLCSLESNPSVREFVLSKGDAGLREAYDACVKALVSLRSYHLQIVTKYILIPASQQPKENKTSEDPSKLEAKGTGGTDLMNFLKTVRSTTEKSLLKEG

hIDO-1 [2] = target: T1, hIDO-1; assay: Cell-based assay of IDO-1 activity in HEK 293 cells transfected with pcDNA3.1-hIDO-1; parameters: expressed in transfected cells; host or cells: HEK 293; settings: HEK 293-hIDO-1 cells, 12-h incubation; mean ± SE of two independent experiments; read-out: Cellular IC50
IDO-1 = tested on: IDO-1; parameters: method as in PMID 30108982; settings: known inhibitors, Figure 1; cited from earlier work

Row | Structure (SMILES) | IC50 (hIDO-1 [1]) [µM] | inhibition at 20 µM (hIDO-1 [1]) [%] | also measured
1 | Cc1coc2c1C(=O)C(=O)c1c-2ccc2c1C(OC(=O)CO)CCC2(C)C (centres unmarked) [Compound 7f] | 2.74 ± 0.1 | – | –
2 | CC1(C)C=CC(=O)c2c1ccc1c2C(=O)C(=O)c2c(CO)coc2-1 [Compound 15, 1-(hydroxymethyl)-6,6-dimethylphenanthro[1,2-b]furan-9,10,11(6H)-trione] | ~20 | 68 ± 8.6 | –
3 | Cc1coc2c1C(=O)C(=O)c1c-2ccc2c1C(OC(=O)c1ccoc1)CCC2(C)C (centres unmarked) [Compound 7k] | 4.6 ± 2.81 | – | –
4 | CCC(=O)OC1CCC(C)(C)c2ccc3c(c21)C(=O)C(=O)c1c(C)coc1-3 (centres unmarked) [Compound 7b] | 4.72 ± 0.3 | – | –
5 | CCC(=O)OC1CCC(C)(C)c2ccc3c(c21)C(=O)C(=O)c1c-3oc(-c2ccccc2)c1C (centres unmarked) [Compound 7d] | – | 21.5 ± 1.1 | –
6 | CCC(=O)OC1CCC(C)(C)c2ccc3c(c21)C(=O)C(=O)c1c-3oc(-c2ccsc2)c1C (centres unmarked) [Compound 7c] | – | 29.3 ± 2.2 | –
7 | Cc1coc2c1C(=O)C(=O)c1c-2ccc2c1C(OC(=O)c1ccccc1)CCC2(C)C (centres unmarked) [Compound 7i] | – | 54.5 ± 2.3 | –
8 | Cc1coc2c1C(=O)C(=O)c1c-2ccc2c1C(O)CCC2(C)C (centres unmarked) [Compound 8] | 2.83 ± 0.12 | – | –
9 | Cc1coc2c1C(=O)C(=O)c1c-2ccc2c1CCCC2(C)C [Compound 6, Tan-IIA, reference compound] | > 20 | 23.1 ± 1.6 | –
10 | Cc1coc2c1C(=O)C(=O)c1c-2ccc2c1C=CC(=O)C2(C)C [Compound 11, 1,6,6-trimethylphenanthro[1,2-b]furan-7,10,11(6H)-trione] | 0.84 ± 0.26 | – | melting point: 261.2 to 262.8 °C; IC50 (hIDO-1 [2]): > 10 µM
11 | Cc1c(-c2c(C)c(O)c3ccccc3c2O)oc2c1C(=O)C(=O)c1c-2ccc2c1CCCC2(C)C [Compound 5] | – | – | IC50 (IDO-1): 4.1 µM
12 | Cc1coc2c1C(=O)C(=O)c1c-2ccc2c1C(OC(=O)C1CCCCC1)CCC2(C)C (centres unmarked) [Compound 7h] | – | 48 ± 3.2 | –
13 | Cc1coc2c1C(=O)C(=O)c1c-2ccc2c1C=CC(O)C2(C)C (centres unmarked) [Compound 10, 7-hydroxy-1,6,6-trimethyl-6,7-dihydrophenanthro[1,2-b]furan-10,11-dione] | 3.1 ± 1.02 | – | melting point: 185.2 to 188.5 °C; IC50 (hIDO-1 [2]): > 10 µM
14 | Cc1cccc2c3c(ccc12)C1=C(C(=O)C3=O)C(C)CO1 (centres unmarked) [Compound 4] | – | – | IC50 (IDO-1): 1.3 µM
15 | Cc1coc2c1C(=O)C(=O)c1c-2ccc2c1C=CCC2(C)C [Compound 9, 1,6,6-trimethyl-6,7-dihydrophenanthro[1,2-b]furan-10,11-dione] | – | 61.2 ± 2.1 | IC50 (IDO-1): 4.68 µM; IC50 (hIDO-1 [2]): > 10 µM
16 | Cc1coc2c1C(=O)C(=O)c1c-2ccc2c1C(OC(=O)C1CC1)CCC2(C)C (centres unmarked) [Compound 7g] | 7.05 ± 2.46 | – | –
17 | CCOC(=O)/C=C/C(=O)OC1CCC(C)(C)c2ccc3c(c21)C(=O)C(=O)c1c(C)coc1-3 (centres unmarked) [Compound 7e] | 7.47 ± 3.58 | – | –
18 | Cc1coc2c1C(=O)C(=O)c1c-2ccc2c1C(=O)C=CC2(C)C [Compound 14, 1,6,6-trimethylphenanthro[1,2-b]furan-9,10,11(6H)-trione] | ~20 | 52.7 ± 2.5 | melting point: 158.3 to 160.8 °C; IC50 (hIDO-1 [2]): > 10 µM
19 | Cc1coc2c1C(=O)C(=O)c1c-2ccc2c1C(OC(=O)c1cccs1)CCC2(C)C (centres unmarked) [Compound 7j] | – | 60.4 ± 3.9 | –
20 | Cc1coc2c1C(=O)C(=O)c1c-2ccc2c1C(OC(=O)c1cnccn1)CCC2(C)C (centres unmarked) [Compound 7m] | 4.96 ± 2.02 | – | –
21 | CC1(C)C(=O)C=Cc2c1ccc1c2C(=O)C(=O)c2c(CO)coc2-1 [Compound 12, 1-(hydroxymethyl)-6,6-dimethylphenanthro[1,2-b]furan-7,10,11(6H)-trione] | 0.37 ± 0.02 | – | IC50 (hIDO-1 [2]): 3.85 ± 0.86 µM
22 | Cc1coc2c1C(=O)C(=O)c1c-2ccc2c1C(OC(=O)c1nccs1)CCC2(C)C (centres unmarked) [Compound 7l] | 5.71 ± 0.47 | – | –
23 | CC(=O)OC1CCC(C)(C)c2ccc3c(c21)C(=O)C(=O)c1c(C)coc1-3 (centres unmarked) [Compound 7a] | 3.72 ± 0.45 | – | –
